Experimental data published in patent US20260364184A1, “COMPOUND BASED ON OXOISOINDOLINYL-SUBSTITUTED TETRAHYDROPYRIMIDINE-DIONE AND USE THEREOF” (GLUETACS THERAPEUTICS (SHANGHAI) CO., LTD., priority 2023, published 2026).

Tests used:
[1] = biological target: T1, CDK4 (Homo sapiens, UniProt P11802+Q96SW2); assay: Western blot degradation of CDK4; assay type: cell-based; conditions: MDA-MB-231 Cell; 24 hours
T1 construct: expression of target proteins in cells; endogenous in cells
Method: (§1) Conventional Western blot assay was performed to evaluate the effects of the compounds of the present disclosure on the expression of target proteins in cells.
(§2) (1) Cell Seeding and Protein Harvesting: The selected cells were processed according to the cell seeding procedure and protein harvesting procedure in Table II-2.
(§3) (2) To the collected supernatant, 5×SDS sample loading buffer was added, followed by denaturation at 95 °C for 5 minutes. The denatured samples were then separated by SDS-PAGE electrophoresis on a polyacrylamide gel. Proteins were transferred to a nitrocellulose membrane (0.45 μm NC membrane), blocked with blocking buffer at room temperature for 1 hour, and subjected to antibody incubation and development procedures according to the antibody manufacturer's instructions (Cell Signaling Technology).
(§4) Half-Maximal Degradation Concentration value (the drug concentration required for degrading proteins by 50%, abbreviated as DC50) reads method: comparing the grayscale values of Western blot bands from drug-treated samples with those from blank DMSO-treated controls, and identifying the drug concentration range at which the grayscale value is half that of the DMSO-treated control bands.
(§5) DC50 values can be calculated using ImageJ software to measure grayscale values of Western blot bands from drug-treated samples. The concentration-response curve is fitted to estimate the drug concentration corresponding to half the grayscale value.
(§6) Target protein remaining (%) refers to the percentage of target protein remaining in cells after treatment with protein degrader compounds.
(§7) Calculation method for target protein remaining (%): Use ImageJ software to measure grayscale values of Western blot bands from drug (protein degrader)-treated samples. The grayscale value of drug-treated bands is divided by that of internal control protein bands, and the resulting quotient is normalized to obtain the relative percentage of remaining target protein after protein degrader treatment.
(§8) Target protein degradation rate (%)=1−target protein remaining (%).

[2] = biological target: T2, CDK6 (Homo sapiens, UniProt Q00534+Q96SW2); assay: Western blot degradation of CDK6; assay type: cell-based; conditions: MDA-MB-231 Cell; 24 hours
T2 construct: expression of target proteins in cells; endogenous in cells
Method: as §1, §2, §3, §4, §5, §6, §7, §8

T1 sequence (P11802 whole entry): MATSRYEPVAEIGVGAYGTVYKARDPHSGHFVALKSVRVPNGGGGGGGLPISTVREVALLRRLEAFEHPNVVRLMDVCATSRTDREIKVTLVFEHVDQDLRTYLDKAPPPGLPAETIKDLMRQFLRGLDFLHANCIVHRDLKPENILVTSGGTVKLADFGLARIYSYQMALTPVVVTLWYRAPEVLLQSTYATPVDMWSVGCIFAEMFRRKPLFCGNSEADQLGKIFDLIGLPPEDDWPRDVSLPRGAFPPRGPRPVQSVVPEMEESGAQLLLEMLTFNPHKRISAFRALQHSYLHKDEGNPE
T1 sequence (Q96SW2 whole entry): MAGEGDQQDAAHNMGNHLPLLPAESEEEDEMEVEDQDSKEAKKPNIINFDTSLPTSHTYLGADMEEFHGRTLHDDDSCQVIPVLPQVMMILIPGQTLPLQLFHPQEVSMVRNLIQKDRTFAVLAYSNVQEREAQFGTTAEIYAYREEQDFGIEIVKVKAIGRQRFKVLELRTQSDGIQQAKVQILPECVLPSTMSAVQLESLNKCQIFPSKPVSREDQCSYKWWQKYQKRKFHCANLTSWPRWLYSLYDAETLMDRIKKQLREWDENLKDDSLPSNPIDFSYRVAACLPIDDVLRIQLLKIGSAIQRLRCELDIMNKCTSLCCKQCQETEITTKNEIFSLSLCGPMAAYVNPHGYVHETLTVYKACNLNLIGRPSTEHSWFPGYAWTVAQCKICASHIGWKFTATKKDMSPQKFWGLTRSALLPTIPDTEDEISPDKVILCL
T1 sequence (Q16531 whole entry partner): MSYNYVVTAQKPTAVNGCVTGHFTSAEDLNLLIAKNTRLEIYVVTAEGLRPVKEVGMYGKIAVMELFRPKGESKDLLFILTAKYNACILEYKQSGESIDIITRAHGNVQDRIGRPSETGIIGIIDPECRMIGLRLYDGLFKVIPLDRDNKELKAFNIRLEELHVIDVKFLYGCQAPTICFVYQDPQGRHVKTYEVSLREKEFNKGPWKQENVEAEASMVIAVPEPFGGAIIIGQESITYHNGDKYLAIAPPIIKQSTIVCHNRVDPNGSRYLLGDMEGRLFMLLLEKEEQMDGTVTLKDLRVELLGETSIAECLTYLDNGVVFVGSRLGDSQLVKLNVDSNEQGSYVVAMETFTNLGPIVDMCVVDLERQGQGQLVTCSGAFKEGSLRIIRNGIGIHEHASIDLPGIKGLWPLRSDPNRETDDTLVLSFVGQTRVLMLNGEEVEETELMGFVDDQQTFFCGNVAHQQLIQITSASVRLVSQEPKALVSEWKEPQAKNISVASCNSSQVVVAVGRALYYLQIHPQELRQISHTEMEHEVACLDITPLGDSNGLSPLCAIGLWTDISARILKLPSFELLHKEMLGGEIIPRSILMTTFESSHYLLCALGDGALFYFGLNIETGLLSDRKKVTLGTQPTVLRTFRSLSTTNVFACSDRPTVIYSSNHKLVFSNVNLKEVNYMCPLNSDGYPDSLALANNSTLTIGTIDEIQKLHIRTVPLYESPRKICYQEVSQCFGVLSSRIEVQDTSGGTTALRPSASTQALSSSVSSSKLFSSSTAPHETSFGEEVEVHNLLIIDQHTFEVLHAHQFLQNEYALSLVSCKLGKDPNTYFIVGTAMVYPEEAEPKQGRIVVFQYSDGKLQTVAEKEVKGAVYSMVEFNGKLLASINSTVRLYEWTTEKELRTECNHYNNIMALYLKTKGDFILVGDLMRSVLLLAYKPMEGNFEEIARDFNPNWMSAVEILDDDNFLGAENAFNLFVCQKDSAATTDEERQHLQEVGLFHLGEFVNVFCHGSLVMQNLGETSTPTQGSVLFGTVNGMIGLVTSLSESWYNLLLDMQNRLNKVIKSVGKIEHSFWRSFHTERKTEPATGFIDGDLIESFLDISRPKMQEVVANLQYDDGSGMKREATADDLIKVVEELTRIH
T2 sequence (Q00534 whole entry): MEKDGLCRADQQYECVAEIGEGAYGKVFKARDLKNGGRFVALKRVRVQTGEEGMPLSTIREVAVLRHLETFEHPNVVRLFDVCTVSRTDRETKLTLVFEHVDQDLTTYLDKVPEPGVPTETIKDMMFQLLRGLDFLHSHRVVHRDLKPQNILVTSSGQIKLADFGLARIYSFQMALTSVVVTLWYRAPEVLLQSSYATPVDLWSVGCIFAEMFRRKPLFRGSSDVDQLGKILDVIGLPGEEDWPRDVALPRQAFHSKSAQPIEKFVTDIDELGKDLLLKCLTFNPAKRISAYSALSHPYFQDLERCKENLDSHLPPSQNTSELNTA
T2 sequence (Q96SW2 whole entry): as the sequence (Q96SW2 whole entry) above
T2 sequence (Q16531 whole entry partner): as the sequence (Q16531 whole entry partner) above

SMILES	Degradation of substrate protein CDK4 (substrate protein remaining %) [1]	Degradation of substrate protein CDK6 (substrate protein remaining %) [2]
CN(C)C(=O)c1cc2cnc(Nc3ccc(N4CCC(CN5CC6CCC(C5)N6c5ccc6c(c5)C(=O)N(N5CCC(=O)NC5=O)C6=O)CC4)cn3)nc2n1C1CCCC1 [GT-05200, 7-cyclopentyl-2-((5-(4-((8-(2-(2,4-dioxotetrahydropyrimidin-1(2H)-yl)-1,3-dioxoisoindolin-5-yl)-3,8-diazabicyclo[3.2.1]octan-3-yl)methyl)piperidin-1-yl)pyridin-2-yl)amino)-N,N-dimethyl-7H-pyrrolo[2,3-d]pyrimidine-6-carboxamide]	B (80%<substrate protein remaining %≤100%)	A (0%≤substrate protein remaining %≤80%)
CN(C)C(=O)c1cc2cnc(Nc3ccc(N4CCC(CN5CCN(c6ccc7c(c6F)C(=O)N(N6CCC(=O)NC6=O)C7=O)CC5)CC4)cn3)nc2n1C1CCCC1 [GT-05203, 7-cyclopentyl-2-((5-(4-((4-(2-(2,4-dioxotetrahydropyrimidin-1(2H)-yl)-4-fluoro-1,3-dioxoisoindolin-5-yl)piperazin-1-yl)methyl)piperidin-1-yl)pyridin-2-yl)amino)-N,N-dimethyl-7H-pyrrolo[2,3-d]pyrimidine-6-carboxamide]	B (80%<substrate protein remaining %≤100%)	A (0%≤substrate protein remaining %≤80%)
CN(C)C(=O)c1cc2cnc(Nc3ccc(N4CCC(CN5CCN(c6cc(F)c7c(c6)C(=O)N(N6CCC(=O)NC6=O)C7=O)CC5)CC4)cn3)nc2n1C1CCCC1 [GT-05204, 7-cyclopentyl-2-((5-(4-((4-(2-(2,4-dioxotetrahydropyrimidin-1(2H)-yl)-7-fluoro-1,3-dioxoisoindolin-5-yl)piperazin-1-yl)methyl)piperidin-1-yl)pyridin-2-yl)amino)-N,N-dimethyl-7H-pyrrolo[2,3-d]pyrimidine-6-carboxamide]	B (80%<substrate protein remaining %≤100%)	A (0%≤substrate protein remaining %≤80%)
CN(C)C(=O)c1cc2cnc(Nc3ccc(N4CCC(CN5CCN(C6CCN(c7ccc8c(c7)C(=O)N(N7CCC(=O)NC7=O)C8=O)CC6(F)F)CC5)CC4)cn3)nc2n1C1CCCC1 (stereo not shown) [GT-05206, 7-cyclopentyl-2-((5-(4-((4-(1-(2-(2,4-dioxotetrahydropyrimidin-1(2H)-yl)-1,3-dioxoisoindolin-5-yl)-3,3-difluoropiperidin-4-yl)piperazin-1-yl)methyl)piperidin-1-yl)pyridin-2-yl)amino)-N,N-dimethyl-7H-pyrrolo[2,3-d]pyrimidine-6-carboxamide]	B (80%<substrate protein remaining %≤100%)	A (0%≤substrate protein remaining %≤80%)
CN(C)C(=O)c1cc2cnc(Nc3ccc(N4CCC(CN5C6CC5CN(c5ccc7c(c5)C(=O)N(N5CCC(=O)NC5=O)C7=O)C6)CC4)cn3)nc2n1C1CCCC1 [GT-05820, 7-cyclopentyl-2-((5-(4-((3-(2-(2,4-dioxotetrahydropyrimidin-1(2H)-yl)-1,3-dioxoisoindolin-5-yl)-3,6-diazabicyclo[3.1.1]heptan-6-yl)methyl)piperidin-1-yl)pyridin-2-yl)amino)-N,N-dimethyl-7H-pyrrolo[2,3-d]pyrimidine-6-carboxamide]	B (80%<substrate protein remaining %≤100%)	A (0%≤substrate protein remaining %≤80%)
